The results in this text go back to patent US20120329826A1, “SUBSTITUTED-5-AMINOPYRROLO/PYRAZOLOPYRIDINES” (OSI Pharmaceuticals,. LLC, priority 2010, published 2012).

The target in one assay is RON (human) (Homo sapiens, UniProt Q04912). The assay is described as follows: RON (human)-Km of ATP AlphaScreen kinase assay. As to conditions: biochemical, ATP at Km. The protocol:
RON (human)-Km of ATP: RON assay is performed in a 384 well assay containing 200 ng/μL biotinylated poly(Glu, Tyr), 0.334 mM vanadate, desired concentration of ATP optimized for the enzyme in assay buffer (50 mM HEPES (pH=7.4), 12.5 mM MgCl2 and 1% glycerol). Desired compound is added in a final concentration of 1% DMSO with control being vehicle of DMSO alone. RON is diluted to the optimized (on a lot-by-lot basis) concentration in an enzyme diluent buffer (50 mM HEPES pH=7.4, 12.5 mM MgCl2 and 1% glycerol, 0.03% Brij35, 0.3 mM EGTA, 1 mM DTT, and 0.003% BSA). Enzyme is added to initiate the reaction and incubated for 30 min at RT. In subdued light, appropriate amount of PT66 donor and acceptor beads (diluted 1:260 from manufacturer's provision in a 25 mM Tris HCl (pH=7.5), 200 mM NaCl, 100 mM EDTA, 0.3% BSA buffer) are added to the wells. The plates, incubated for 1 h, are read on an AlphaQuest plate reader.
A general note: Alpha assays give light when donor and acceptor beads are brought close together.

The target in the next assay is MET (human) (Homo sapiens, UniProt P08581). The assay is described as follows: MET (human)-Km of ATP AlphaScreen kinase assay. As to conditions: biochemical, ATP at Km. On the procedure:
MET (human)-Km of ATP: MET assay is performed in a 384 well assay containing 200 ng/μL biotinylated poly(Glu, Tyr), 0.334 mM vanadate, desired concentration of ATP optimized for the enzyme in assay buffer (50 mM HEPES (pH=7.4), 5 mM MgCl2, 5 mM MnCl2, and 1% glycerol). Desired compound is added in a final concentration of 1% DMSO with control being vehicle of DMSO alone. MET is diluted to the optimized concentration (optimized on a lot-by-lot basis) in an enzyme diluent buffer (50 mM Tris pH=7.4, 1% glycerol, 0.03% Brij35, 0.24 mM EGTA, 1 mM DTT, and 0.003% BSA). Enzyme is added to initiate the reaction and incubated for 60 min at RT. In subdued light, appropriate amount of PT66 donor and acceptor beads (diluted 1:260 from manufacturer's provision in a 25 mM Tris HCl (pH=7.5), 400 mM NaCl, 100 mM EDTA, 0.3% BSA buffer) are added to the wells. The plates, incubated for 1 h, are read on an AlphaQuest plate reader

Structures can show the parent of a compound that is named as a salt.

Sequence of MET (human) (P08581 25-1390): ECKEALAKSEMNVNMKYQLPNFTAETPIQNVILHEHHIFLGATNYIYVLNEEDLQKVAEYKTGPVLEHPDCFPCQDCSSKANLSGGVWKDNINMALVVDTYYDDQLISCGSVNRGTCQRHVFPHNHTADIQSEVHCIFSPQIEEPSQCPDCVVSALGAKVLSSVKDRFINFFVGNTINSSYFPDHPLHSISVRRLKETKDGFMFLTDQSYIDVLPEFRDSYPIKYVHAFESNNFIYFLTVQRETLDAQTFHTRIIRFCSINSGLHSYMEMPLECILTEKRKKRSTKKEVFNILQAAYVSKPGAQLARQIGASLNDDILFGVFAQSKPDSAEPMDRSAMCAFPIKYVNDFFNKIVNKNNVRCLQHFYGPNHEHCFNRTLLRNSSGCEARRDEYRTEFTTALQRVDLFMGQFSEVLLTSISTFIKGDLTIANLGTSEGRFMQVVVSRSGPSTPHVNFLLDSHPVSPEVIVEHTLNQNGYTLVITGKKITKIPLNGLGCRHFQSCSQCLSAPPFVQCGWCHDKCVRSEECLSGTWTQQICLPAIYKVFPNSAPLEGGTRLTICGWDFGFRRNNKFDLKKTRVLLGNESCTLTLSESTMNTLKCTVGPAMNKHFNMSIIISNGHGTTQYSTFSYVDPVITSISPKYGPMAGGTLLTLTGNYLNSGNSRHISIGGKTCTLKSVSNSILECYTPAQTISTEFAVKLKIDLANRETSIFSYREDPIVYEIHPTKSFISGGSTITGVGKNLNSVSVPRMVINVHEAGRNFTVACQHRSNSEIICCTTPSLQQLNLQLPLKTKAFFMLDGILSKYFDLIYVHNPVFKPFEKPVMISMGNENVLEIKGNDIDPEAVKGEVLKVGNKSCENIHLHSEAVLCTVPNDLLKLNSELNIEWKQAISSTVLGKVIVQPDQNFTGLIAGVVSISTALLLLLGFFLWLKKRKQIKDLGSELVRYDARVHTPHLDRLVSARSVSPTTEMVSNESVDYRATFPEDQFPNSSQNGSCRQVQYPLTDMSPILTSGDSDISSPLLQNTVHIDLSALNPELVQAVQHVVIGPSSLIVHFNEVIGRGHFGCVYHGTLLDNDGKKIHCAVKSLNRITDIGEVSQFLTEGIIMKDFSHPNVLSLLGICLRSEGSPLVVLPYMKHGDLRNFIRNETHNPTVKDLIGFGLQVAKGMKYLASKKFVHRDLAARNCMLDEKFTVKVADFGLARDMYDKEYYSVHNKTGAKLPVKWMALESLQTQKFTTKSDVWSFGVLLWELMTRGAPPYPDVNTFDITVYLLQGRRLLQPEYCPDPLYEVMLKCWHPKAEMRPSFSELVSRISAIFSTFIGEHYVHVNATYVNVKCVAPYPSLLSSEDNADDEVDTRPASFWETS
Sequence of RON (human) (Q04912 25-1400): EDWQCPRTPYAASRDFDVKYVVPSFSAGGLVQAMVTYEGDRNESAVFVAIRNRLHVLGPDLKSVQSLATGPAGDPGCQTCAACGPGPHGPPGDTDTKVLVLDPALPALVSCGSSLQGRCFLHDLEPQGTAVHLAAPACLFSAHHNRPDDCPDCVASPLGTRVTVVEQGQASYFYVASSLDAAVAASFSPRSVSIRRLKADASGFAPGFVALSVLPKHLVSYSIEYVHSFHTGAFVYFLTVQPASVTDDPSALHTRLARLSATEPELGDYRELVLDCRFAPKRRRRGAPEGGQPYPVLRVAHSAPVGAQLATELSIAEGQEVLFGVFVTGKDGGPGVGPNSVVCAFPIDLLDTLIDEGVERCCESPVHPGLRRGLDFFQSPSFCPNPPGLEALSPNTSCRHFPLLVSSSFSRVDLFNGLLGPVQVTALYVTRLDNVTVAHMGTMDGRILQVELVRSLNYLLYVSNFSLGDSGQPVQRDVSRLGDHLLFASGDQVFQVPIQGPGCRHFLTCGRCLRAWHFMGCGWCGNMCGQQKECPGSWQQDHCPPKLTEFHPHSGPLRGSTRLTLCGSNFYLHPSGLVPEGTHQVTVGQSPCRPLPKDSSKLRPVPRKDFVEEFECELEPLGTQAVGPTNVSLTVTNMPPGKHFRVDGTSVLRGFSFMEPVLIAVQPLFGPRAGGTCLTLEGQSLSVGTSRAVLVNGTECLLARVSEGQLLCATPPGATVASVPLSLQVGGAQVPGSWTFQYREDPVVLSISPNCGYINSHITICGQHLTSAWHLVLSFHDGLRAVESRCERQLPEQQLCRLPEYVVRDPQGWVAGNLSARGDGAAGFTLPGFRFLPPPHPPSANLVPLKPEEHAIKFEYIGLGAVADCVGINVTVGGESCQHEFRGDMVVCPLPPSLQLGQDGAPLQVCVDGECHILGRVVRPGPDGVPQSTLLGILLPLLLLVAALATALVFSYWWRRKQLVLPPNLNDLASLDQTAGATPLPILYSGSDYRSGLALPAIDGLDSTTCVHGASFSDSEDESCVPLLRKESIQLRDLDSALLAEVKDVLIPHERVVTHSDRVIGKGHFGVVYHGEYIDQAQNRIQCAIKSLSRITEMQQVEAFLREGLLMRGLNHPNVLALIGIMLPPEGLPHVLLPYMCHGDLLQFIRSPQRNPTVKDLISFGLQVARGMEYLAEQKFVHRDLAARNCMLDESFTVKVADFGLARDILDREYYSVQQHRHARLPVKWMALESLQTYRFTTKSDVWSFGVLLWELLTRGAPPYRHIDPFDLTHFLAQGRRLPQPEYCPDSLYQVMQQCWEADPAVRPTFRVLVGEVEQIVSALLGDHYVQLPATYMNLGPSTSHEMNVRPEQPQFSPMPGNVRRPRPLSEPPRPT

The IC50 is the concentration that gives 50% inhibition. Read a high IC50 as weaker potency in that assay. In the case of `C[C@@H](Oc1c(N)ncc2[nH]ccc12)c1c(Cl)ccc(F)c1Cl` [Example 1, 4-[(R)-1-(2,6-Dichloro-3-fluorophenyl)ethoxy]-1H-pyrrolo[2,3-c]pyridin-5-ylamine], the half-inhibitory concentration (IC50) on RON (human) and against MET (human) was 5 to 20 µM in each case.

Turning to `C[C@@H](Oc1c(N)ncc2c1ccn2C)c1c(Cl)ccc(F)c1Cl` [Example 2, 4-[(R)-1-(2,6-Dichloro-3-fluorophenyl)ethoxy]-1-methyl-1H-pyrrolo[2,3-c]pyridin-5-ylamine], the concentration for half-maximal inhibition (IC50) on RON (human) was > 20 µM; on MET (human), 5 to 20 µM.

In the case of `Nc1ncc2c(ccn2CCC2CCNCC2)c1-c1cc2ccccc2o1` [Example 10, [(4-Benzofuran-2-yl)-1-(2-piperidin-4-ylethyl)-1H-pyrrolo[2,3-c]pyridin-5-yl]amine bis-hydrochloride], the IC50 against RON (human) and at MET (human) was ≤ 5 µM each time.

Consider `C[C@@H](Oc1c(N)ncc2c1ccn2S(=O)(=O)c1ccccc1)c1c(Cl)ccc(F)c1Cl` [Example 6, 1-Benzenesulfonyl-4-[(R)-1-(2,6-dichloro-3-fluorophenyl)ethoxy]-1H-pyrrolo[2,3-c]pyridin-5-ylamine], for which the IC50 on RON (human) is > 20 µM; against MET (human), 5 to 20 µM.

For the molecule `Nc1ncc2[nH]ccc2c1-c1cc2ccccc2o1` [Example 7, 4-Benzofuran-2-yl-1H-pyrrolo[2,3-c]pyridin-5-ylamine], the IC50 at RON (human) and on MET (human) was > 20 µM each time.

For `C[C@@H](Oc1c(N)ncc2c1ccn2CCC1CCNCC1)c1c(Cl)ccc(F)c1Cl` [Example 5, 4-[(R)-1-(2,6-Dichloro-3-fluorophenyl)ethoxy]-1-(2-piperidin-4-ylethyl)1H-pyrrolo[2,3-c]pyridin-5-ylamine bis-hydrochloride], the half-inhibitory concentration (IC50) on RON (human) and at MET (human) was ≤ 5 µM in each case.

With `Nc1ncc2c(ccn2Cc2ccccc2)c1-c1cc2ccccc2o1` [Example 8, [(4-Benzofuran-2-yl)-1-benzyl-1H-pyrrolo[2,3-c]pyridin-5-yl]amine], on RON (human), the IC50 was > 20 µM.
